Experimental data published in ChEMBL document CHEMBL2046407, “Synthesis and in vitro antitubercular activity of 4-aryl/alkylsulfonylmethylcoumarins as inhibitors of Mycobacterium tuberculosis” (2012).
Converted amounts (≈) assume the structure as drawn.

Tested on: Mycobacterium tuberculosis
Assay: Antimycobacterial activity against Mycobacterium tuberculosis H37Rv by agar diffusion method
Type: functional

Compared with `O=c1cc(CS(=O)(=O)c2ccccc2)c2ccccc2o1`, `Cc1ccc(S(=O)(=O)Cc2cc(=O)oc3ccccc23)cc1` is 2-fold higher in MIC: 6.25 µg/mL (≈ 20.8 µM) for the first, 12.5 µg/mL (≈ 39.8 µM) for the second.

First: O=c1cc(CS(=O)(=O)c2ccc(Cl)cc2)c2ccccc2o1
Second: COc1ccc2c(CS(=O)(=O)c3ccc(Cl)cc3)cc(=O)oc2c1
The MIC of the first is 2-fold higher: 12.5 µg/mL (≈ 37.3 µM) for the first, 6.25 µg/mL (≈ 17.1 µM) for the second.

Compared with `O=c1cc(CS(=O)(=O)c2nc3ccccc3o2)c2ccccc2o1`, `O=c1cc(CS(=O)(=O)c2nc3ccccc3[nH]2)c2ccccc2o1` is 4.7-fold lower in MIC: 7.5 µg/mL (≈ 22 µM) for the first, 1.61 µg/mL (≈ 4.73 µM) for the second.

Compared with `O=c1cc(CS(=O)(=O)C2CCCCC2)c2ccccc2o1`, `COc1ccc2c(CS(=O)(=O)C3CCCCC3)cc(=O)oc2c1` is 2-fold higher in MIC: 6.25 µg/mL (≈ 20.4 µM) for the first, 12.5 µg/mL (≈ 37.2 µM) for the second.

Compared with `COc1ccc2c(CS(=O)(=O)c3ccccc3)cc(=O)oc2c1OC`, `COc1ccc2c(CS(=O)(=O)c3ccc(C)cc3)cc(=O)oc2c1OC` is 2-fold lower in MIC: 6.25 µg/mL (≈ 17.3 µM) for the first, 3.13 µg/mL (≈ 8.36 µM) for the second.

First: COc1ccc2c(CS(=O)(=O)c3ccc(Cl)cc3)cc(=O)oc2c1OC
Second: COc1ccc2c(CS(=O)(=O)c3nc4ccccc4o3)cc(=O)oc2c1OC
The MIC of the first is 2-fold higher: 1.56 µg/mL (≈ 3.95 µM) for the first, 0.78 µg/mL (≈ 1.94 µM) for the second.

`COc1ccc2c(CS(=O)(=O)c3nc4ccccc4[nH]3)cc(=O)oc2c1OC` and `COc1ccc2c(CS(=O)(=O)c3nc4ccccc4[nH]3)cc(=O)oc2c1` are the same in MIC: 6.25 µg/mL (≈ 15.6 µM) for the first, 6.25 µg/mL (≈ 16.9 µM) for the second.

`COc1ccc2c(CS(=O)(=O)C3CCCCC3)cc(=O)oc2c1OC` and `COc1ccc2c(CS(=O)(=O)c3ccccc3)cc(=O)oc2c1` are the same in MIC: 12.5 µg/mL (≈ 34.1 µM) for the first, 12.5 µg/mL (≈ 37.8 µM) for the second.

First: COc1ccc2c(CS(=O)(=O)c3ccc(C)cc3)cc(=O)oc2c1
Second: COc1ccc2c(CS(=O)(=O)c3nc4ccccc4o3)cc(=O)oc2c1
The MIC of the first is 2-fold higher: 12.5 µg/mL (≈ 36.3 µM) for the first, 6.25 µg/mL (≈ 16.8 µM) for the second.

Compared with `CC[C@@H](CO)NCCN[C@@H](CC)CO` [ETHAMBUTOL], `NC(=O)c1cnccn1` [PYRAZINAMIDE] is 4-fold higher in MIC: 1.56 µg/mL (≈ 7.64 µM) for the first, 6.25 µg/mL (≈ 50.8 µM) for the second.
